According to ChEMBL document CHEMBL4837241, “Identification of Betulinic Acid Derivatives as Potent TGR5 Agonists with Antidiabetic Effects via Humanized TGR5H88Y Mutant Mice” (J Med Chem, 2021):
≈ marks a conversion by molar mass, not a printed value. Calls of active or inactive are those of the source. The calls are words filed in the database; no cut-off is given here.

Key:
[1] = target: T1, G-protein coupled bile acid receptor 1 (Mus musculus) (UniProt Q80SS6); assay: Agonist activity at N-terminal HA-tagged mouse TGR5 expressed in HEK293 cells assessed as […] in intracellular cAMP levels incubated for 30 mins by Lance Ultra cAMP assay relative to control; assay type: functional, cell-based; conditions: for Activity: filed as agonist
T1 sequence (whole entry): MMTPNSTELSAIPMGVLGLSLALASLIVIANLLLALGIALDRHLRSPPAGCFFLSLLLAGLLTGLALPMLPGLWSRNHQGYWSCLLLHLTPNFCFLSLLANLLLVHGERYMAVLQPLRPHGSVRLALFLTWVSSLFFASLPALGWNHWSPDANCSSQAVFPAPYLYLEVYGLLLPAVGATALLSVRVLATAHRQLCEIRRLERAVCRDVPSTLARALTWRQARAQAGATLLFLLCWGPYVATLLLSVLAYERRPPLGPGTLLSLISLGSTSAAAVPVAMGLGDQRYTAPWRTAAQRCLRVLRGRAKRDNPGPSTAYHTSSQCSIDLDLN

HEK293 [2] = assay: Agonist activity at N-terminal HA-tagged dog TGR5 expressed in HEK293 cells assessed as […] in intracellular cAMP levels incubated for 30 mins by Lance Ultra cAMP assay relative to control; assay type: cell-based; conditions: Canis lupus familiaris, filed as agonist
HEK293 [3] = assay: Ratio of agonist activity at N-terminal HA-tagged mouse TGR5 expressed in HEK293 cells to agonist activity at N-terminal HA-tagged mouse TGR5 H88Y mutant expressed in HEK293 cells; assay type: cell-based
[4] = target: T2, G-protein coupled bile acid receptor 1 (Homo sapiens, UniProt Q8TDU6); assay: Agonist activity at N-terminal HA-tagged human TGR5 expressed in HEK293 cells assessed as […] in intracellular cAMP levels incubated for 30 mins by Lance Ultra cAMP assay; assay type: functional, cell-based
T2 sequence (Q8TDU6 whole entry): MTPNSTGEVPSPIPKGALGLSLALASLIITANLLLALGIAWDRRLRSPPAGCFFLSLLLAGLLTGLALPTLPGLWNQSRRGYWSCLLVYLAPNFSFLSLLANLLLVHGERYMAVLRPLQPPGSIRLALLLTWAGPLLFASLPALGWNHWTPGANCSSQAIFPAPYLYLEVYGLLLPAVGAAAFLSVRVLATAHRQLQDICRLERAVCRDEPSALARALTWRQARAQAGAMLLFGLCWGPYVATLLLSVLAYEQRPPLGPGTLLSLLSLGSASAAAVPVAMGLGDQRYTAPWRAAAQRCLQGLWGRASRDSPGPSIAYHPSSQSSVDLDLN

[5] = target: T3, G-protein coupled bile acid receptor 1 (Homo sapiens) (UniProt Q8TDU6); assay: Agonist activity at N-terminal HA-tagged human TGR5 expressed in HEK293 cells assessed as […] in intracellular cAMP levels incubated for 30 mins by Lance Ultra cAMP assay relative to control; assay type: functional, cell-based; conditions: filed as agonist
T3 sequence (whole entry): T2 sequence (Q8TDU6 whole entry)

[6] = target: T4, Bile acid receptor (Homo sapiens) (UniProt Q96RI1); assay: Agonist activity at human FXR (247 to 467 residues) expressed in HEK293 cells at 100 uM incubated for 8 hrs by luciferase assay; assay type: cell-based
T4 sequence (whole entry): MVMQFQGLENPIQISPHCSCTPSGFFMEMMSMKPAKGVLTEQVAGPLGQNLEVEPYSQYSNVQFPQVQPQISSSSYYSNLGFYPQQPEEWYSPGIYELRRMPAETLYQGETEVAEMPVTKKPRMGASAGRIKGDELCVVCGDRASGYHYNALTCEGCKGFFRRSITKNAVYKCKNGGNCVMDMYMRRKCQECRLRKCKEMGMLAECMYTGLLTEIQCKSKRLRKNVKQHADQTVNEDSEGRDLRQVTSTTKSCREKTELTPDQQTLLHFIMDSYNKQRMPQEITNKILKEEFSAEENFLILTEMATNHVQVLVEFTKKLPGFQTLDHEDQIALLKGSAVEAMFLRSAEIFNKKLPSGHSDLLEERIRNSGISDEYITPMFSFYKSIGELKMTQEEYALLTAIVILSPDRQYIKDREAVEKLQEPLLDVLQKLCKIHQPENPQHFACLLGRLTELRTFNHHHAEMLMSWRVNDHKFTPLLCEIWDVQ

[7] = Apparent permeability in human Caco2 cells across apical side to basolateral side assessed as drug recovery at 10 uM incubated for 95 mins by liquid chromatography-tandem mass spectrometry; assay type: ADME, cell-based; conditions: Caco-2, read-out: Drug recovery
Mus musculus [8] = assay: Anti-glycemic activity in fasted C57/BL6 mouse harboring TGR5 H88Y mutant assessed as reduction in plasma glucose at 100 mg/kg administered 30 mins prior to glucose challenge by OGTT; assay type: functional, organism-based
[9] = Aqueous solubility of compound; assay type: physicochemical; conditions: buffer
[10] = target: T5, G-protein coupled bile acid receptor 1 (Mus musculus, UniProt Q80SS6); assay: Agonist activity at N-terminal HA-tagged mouse TGR5 expressed in HEK293 cells assessed as […] in intracellular cAMP levels incubated for 30 mins by Lance Ultra cAMP assay; assay type: functional, cell-based
T5 sequence (Q80SS6 whole entry): T1 sequence (whole entry)

[11] = Apparent permeability in human Caco2 cells across basolateral side to apical side assessed as drug recovery at 10 uM incubated for 95 mins by liquid chromatography-tandem mass spectrometry; assay type: ADME, cell-based; conditions: Caco-2, read-out: Drug recovery
[12] = Efflux ratio in human Caco-2 cells at 10 uM by LC/MS/MS analysis; assay type: ADME, cell-based
[13] = Apparent permeability in human Caco-2 cells across basolateral side to apical side at 10 uM incubated for 95 mins by liquid chromatography-tandem mass spectrometry; assay type: ADME, cell-based
[14] = Apparent permeability in human Caco-2 cells across apical side to basolateral side at 10 uM incubated for 95 mins by liquid chromatography-tandem mass spectrometry; assay type: ADME, cell-based
Pancreatic islet [15] = assay: Stimulation of glucose-induced insulin secretion in pancreatic islets of C57BL/6n mouse harboring TGR5 H88Y mutant at 1 uM incubated for 2 hrs by HTRF method; assay type: functional, tissue-based
Mus musculus [16] = assay: Anti-glycemic activity in fasted C57BL/6n mouse harboring TGR5 H88Y mutant assessed as increase in serum GLP1 at 100 mg/kg administered 30 mins prior to glucose challenge and measured after 15 mins by ELISA method; assay type: functional, organism-based
Mus musculus [17] = assay: Anti-glycemic activity in fasted C57BL/6n mouse harboring TGR5 H88Y mutant assessed as increase in serum insulin at 100 mg/kg administered 30 mins prior to glucose challenge and measured after 15 mins by ELISA method; assay type: functional, organism-based
Mus musculus [18] = assay: Anti-glycemic activity in fasted C57BL/6n mouse harboring wild type TGR5 assessed as reduction in plasma glucose at 100 mg/kg administered 30 mins prior to glucose challenge by OGTT; assay type: functional, organism-based
Mus musculus [19] = assay: Anti-glycemic activity in fasted C57BL/6n mouse assessed as increase in serum GLP1 at 100 mg/kg administered 30 mins prior to glucose challenge and measured after 15 mins by ELISA method; assay type: functional, organism-based
Mus musculus [20] = assay: Anti-glycemic activity in fasted C57BL/6n mouse assessed as increase in serum insulin at 100 mg/kg administered 30 mins prior to glucose challenge and measured after 15 mins by ELISA method; assay type: functional, organism-based
Pancreatic islet [21] = assay: Stimulation of glucose-induced insulin secretion in pancreatic islets of C57BL/6n mouse harboring wild type TGR5 at 1 uM incubated for 2 hrs by HTRF method; assay type: functional, tissue-based

| SMILES | EC50 [4] [nM] | Emax [5] [%] | Activity [6] | further results |
| --- | --- | --- | --- | --- |
| C[C@H](CCC(=O)O)[C@H]1CC[C@H]2[C@@H]3CC[C@@H]4C[C@H](O)CC[C@]4(C)[C@H]3CC[C@]12C | – | – | – | Activity [1]: Active; Activity (HEK293 [2]): Active |
| COc1ccc2cc(CNCCc3ccc(Br)cc3)c(-c3ccsc3)nc2c1 | – | – | – | Ratio (HEK293 [3]): 5.6; Activity (HEK293 [2]): Active |
| CC(C)[C@@H]1CC[C@]2(N)CC[C@]3(C)[C@H](CC[C@@H]4[C@@]5(C)CC[C@@H](OC(=O)NC6CC6)C(C)(C)[C@@H]5CC[C@]43C)[C@@H]12 | 867 | 97 | inactive | – |
| CCCC(=O)O[C@@H]1CC[C@]2(C)[C@H]3CC[C@@H]4[C@H]5[C@H](C(C)C)CC[C@]5(C(=O)O)CC[C@@]4(C)[C@]3(C)CC[C@H]2C1(C)C | 83.1 | 94 | inactive | recovery at 1.583 h, 10 µM [7]: 0%; Activity (Mus musculus [8]): inactive; solubility [9]: 0.13 µM (≈ 0.0687 µg/mL); Emax [1]: 22%; EC50 [10]: 2610 nM; recovery at 1.583 h, 10 µM [11]: 0% |
| CC1(C)[C@H](OC(=O)NC2CC2)CC[C@]2(C)[C@H]3CC[C@@H]4[C@H]5[C@H]([C@@]6(C)CO6)CC[C@]5(C(=O)O)CC[C@@]4(C)[C@]3(C)CC[C@@H]12 | 18.6 | 99 | inactive | – |
| COc1ccc(NC(=O)O[C@@H]2CC[C@]3(C)[C@H]4CC[C@@H]5[C@H]6[C@H](C(C)C)CC[C@]6(C(=O)O)CC[C@@]5(C)[C@]4(C)CC[C@H]3C2(C)C)cc1 | 230 | 91 | inactive | – |
| CC(C)[C@@H]1CC[C@]2(C(=O)O)CC[C@]3(C)[C@H](CC[C@@H]4[C@@]5(C)CC[C@@H](OC(=O)CO)C(C)(C)[C@@H]5CC[C@]43C)[C@@H]12 | 27 | 100 | inactive | – |
| CC(C)[C@@H]1CC[C@]2(C(=O)O)CC[C@]3(C)[C@H](CC[C@@H]4[C@@]5(C)CC[C@@H](OC(=O)Nc6ccc(F)cc6)C(C)(C)[C@@H]5CC[C@]43C)[C@@H]12 | 1510 | 75 | inactive | – |
| CC(=O)[C@@H]1CC[C@]2(C(=O)O)CC[C@]3(C)[C@H](CC[C@@H]4[C@@]5(C)CC[C@@H](OC(=O)NC6CC6)C(C)(C)[C@@H]5CC[C@]43C)[C@@H]12 | 13.1 | 100 | inactive | – |
| C[C@H](O)[C@@H]1CC[C@]2(C(=O)[O-])CC[C@]3(C)[C@H](CC[C@@H]4[C@@]5(C)CC[C@@H](OC(=O)NC6CC6)C(C)(C)[C@@H]5CC[C@]43C)[C@@H]12.[Na+] | – | – | – | recovery at 1.583 h, 10 µM [7]: 84.6%; efflux ratio at 10 µM [12]: 0.329; Papp B→A at 1.583 h, 10 µM [13]: 2.49 ×10⁻⁶ cm/s; solubility [9]: 76300 µM; Papp A→B at 1.583 h, 10 µM [14]: 7.56 ×10⁻⁶ cm/s; recovery at 1.583 h, 10 µM [11]: 85.1% |
| C[C@H](CCC(=O)O)[C@H]1CC[C@H]2[C@@H]3[C@H](O)C[C@@H]4C[C@H](O)CC[C@]4(C)[C@H]3C[C@H](O)[C@]12C | – | – | – | Activity [1]: Active; Activity (HEK293 [2]): Active |
| C[C@H](O)[C@@H]1CC[C@]2(C(=O)O)CC[C@]3(C)[C@H](CC[C@@H]4[C@@]5(C)CC[C@@H](OC(=O)NC6CC6)C(C)(C)[C@@H]5CC[C@]43C)[C@@H]12 [listing 1 of 2 here] | – | 99 | inactive | Activity (Pancreatic islet [15]): Active; Activity (Mus musculus [8]): Active; Activity (Mus musculus [16]): Active; Activity (Mus musculus [17]): Active; Activity (Mus musculus [18]): inactive; Activity (Mus musculus [19]): inactive; Activity (Mus musculus [20]): inactive; Activity (Pancreatic islet [21]): Active |
| CC(C)[C@@H]1CC[C@]2(C(=O)O)CC[C@]3(C)[C@H](CC[C@@H]4[C@@]5(C)CC[C@@H](OC(=O)NC6CCC6)C(C)(C)[C@@H]5CC[C@]43C)[C@@H]12 | 26.7 | 92 | inactive | – |
| CCOC(=O)O[C@@H]1CC[C@]2(C)[C@H]3CC[C@@H]4[C@H]5[C@H](C(C)C)CC[C@]5(C(=O)O)CC[C@@]4(C)[C@]3(C)CC[C@H]2C1(C)C | 80 | 92 | inactive | – |
| CC(C)[C@@H]1CC[C@]2(C(=O)O)CC[C@]3(C)[C@H](CC[C@@H]4[C@@]5(C)CC[C@@H](OC(=O)N6CCOCC6)C(C)(C)[C@@H]5CC[C@]43C)[C@@H]12 | 452 | 95 | inactive | – |
| CC(C)[C@@H]1CC[C@]2(C(=O)O)CC[C@]3(C)[C@H](CC[C@@H]4[C@@]5(C)CC[C@@H](OC(=O)NC6CC6)C(C)(C)[C@@H]5CC[C@]43C)[C@@H]12 | 10.1 | 99 | inactive | – |
| C[C@H](O)[C@@H]1CC[C@]2(C(=O)O)CC[C@]3(C)[C@H](CC[C@@H]4[C@@]5(C)CC[C@@H](OC(=O)NC6CC6)C(C)(C)[C@@H]5CC[C@]43C)[C@@H]12 [listing 2 of 2 here] | 5.07 | – | – | solubility [9]: 12.2 µM (≈ 6.63 µg/mL) |
| O=C(c1cccnc1Oc1cc(Cl)ccc1Cl)N1CCCc2ccccc21 | – | – | – | Ratio (HEK293 [3]): 4.9; Activity (HEK293 [2]): Active |
| CCN(C)C(=O)O[C@@H]1CC[C@]2(C)[C@H]3CC[C@@H]4[C@H]5[C@H](C(C)C)CC[C@]5(C(=O)O)CC[C@@]4(C)[C@]3(C)CC[C@H]2C1(C)C | 211 | 92 | inactive | – |
| CC(C)[C@@H]1CC[C@]2(NC(=O)NCC(=O)O)CC[C@]3(C)[C@H](CC[C@@H]4[C@@]5(C)CC[C@@H](OC(=O)NC6CC6)C(C)(C)[C@@H]5CC[C@]43C)[C@@H]12 | 174 | 99 | inactive | – |
| CCCNC(=O)O[C@@H]1CC[C@]2(C)[C@H]3CC[C@@H]4[C@H]5[C@H](C(C)C)CC[C@]5(C(=O)O)CC[C@@]4(C)[C@]3(C)CC[C@H]2C1(C)C | 26.9 | 96 | inactive | – |
